Reference: patent publication US5098935A, “Carcinostatic or antitumor antibiotic, conagenin, and production and uses thereof” (Zaidan Hojin Biseibutsu Kagaku Kenkyu Kai, priority 1989, dated 1992)
Entries after “also recorded” stand apart in the source; their conditions may differ.

Tests used:
[1] = Acute toxicity (LD50), intraperitoneal administration to female ICR mice; conditions: mouse, in vivo
Method: Toxicity of Conagenin was tested by intraperitoneal administration to female ICR mice and estimated as its LD50 being higher than 50 mg/Kg.

[2] = test system: Ehrlich's solid carcinoma; assay: Inhibitory activity on Ehrlich's solid carcinoma in mice; type: in vivo, mice (ICR, female); conditions: for Percent inhibition (decrease in weight of solid carcinoma vs untreated control): once a day for 7 days from 7th day, weighed on 15th day
Method: (2) Inhibitory activity on Ehrlich's solid carcinoma in mice ICR mice (female, 6 weeks-aged, 4 mice in each group) were inoculated with Ehrlich's ascites carcinoma cells (2×10^6 per mouse in the form of a cell suspension) subcutaneously at the groin of the mice. After the 7th day from the inoculation of the carcinoma cells, an injectable solution of Conagenin was intraperitoneally injected into the carcinoma-bearing mice at a dosage of 6.25, 3.1, 1.56, 0.78, 0.39 and 0.195 mg/Kg once a day during the consecutive 7 days for each group of mice. On the 15th day from the inoculation of the carcinoma cells, the solid carcinoma so grown was cut off and the weight of the solid carcinoma was determined. Control test was conducted using 8 mice of the same type as above in a usual manner. Percent inhibition of the proliferation of the solid carcinoma, i.e. the percent decrease in the weight of the solid carcinoma in each treated group of mice administered with Conagenin as compared to that in the control group of mice (untreated), is callculated and shown in Table 3 below.

[3] = test system: Leukemia L1210 cells; assay: Effect on the surface of carcinoma cell membrane: binding of radiolabelled Concanavalin A to Leukemia L1210 cells; type: cell-based
Method: Each of the resulting suspensions was incubated in a CO2 -incubator (CO2 concentration:5%) at 37° C. for 2 days. A radioisotope-labelled Concanavalin A (Concanavalin A N-[acetyl-^3 H] acetylated; a product of Amersham Co., Ltd.) in an amount of 40 nCi/ml was added to the suspension under incubation at a time of one hour before the end of the incubation. The incubated cells were fixed on a filter paper by a cell harvester and the radioactivity value of the cells so fixed was measured by a liquid scintillation counter. The respective values thus given were converted assumed that the radioactivity value of the control group sample was amounting to 100, and the converted values are shown in Table 4 as the increase in binding of Concanavalin A to L1210 cells.

[4] = Solubility; type: physicochemical
[5] = Acidic nature; type: physicochemical

## CC(O)C(C)C(O)C(=O)NC(C)(CO)C(=O)O (centres unmarked) [Conagenin]
[1]
  toxicity (in words): low toxicity
[1]; ip, intraperitoneal, female ICR mice
  LD50: > 50 mg/kg
[2]; 0.195 mg/Kg/day i.p.
  Percent inhibition (decrease in weight of solid carcinoma vs untreated control): 44%
[2]; 0.39 mg/Kg/day i.p.
  Percent inhibition (decrease in weight of solid carcinoma vs untreated control): 29%
[2]; 0.78 mg/Kg/day i.p.
  Percent inhibition (decrease in weight of solid carcinoma vs untreated control): 58%
[2]; 1.56 mg/Kg/day i.p.
  Percent inhibition (decrease in weight of solid carcinoma vs untreated control): 44%
[2]; 3.1 mg/Kg/day i.p.
  Percent inhibition (decrease in weight of solid carcinoma vs untreated control): 67%
[2]; 6.25 mg/Kg/day i.p.
  Percent inhibition (decrease in weight of solid carcinoma vs untreated control): 45%
[2]; Ehrlich's solid carcinoma in mice
  carcinostatic or antitumor activity in vivo (in words): significant carcinostatic or antitimor activity; also recorded: significant carcinostatic or antitumor activity in vivo
[3]
  binding of Concanavalin A to L1210 cells (in words): could increase the binding of Concanavalin A to L1210 cells
[3]; Mus musculus, L1210, 48 h, 0.25 μg/ml, 37° C., 2 days, control group = 100, read-out: Increase in binding of Concanavalin A
  activity at 0.25 µg/mL: < 100%
[3]; Mus musculus, L1210, 48 h, 0.5 μg/ml, 37° C., 2 days, control group = 100, read-out: Increase in binding of Concanavalin A
  activity at 0.5 µg/mL: 129%
[3]; Mus musculus, L1210, 48 h, 1.0 μg/ml, 37° C., 2 days, control group = 100, read-out: Increase in binding of Concanavalin A
  activity at 1 µg/mL: 121%
[4]; chloroform
  Solubility in chloroform: insoluble; also recorded: sparingly soluble
[4]; methanol
  Solubility in methanol: readily soluble; also recorded: Easily soluble
[4]; water
  Solubility in water: soluble in water
[5]
  acidity (in words): weakly acidic
